From ChEMBL document CHEMBL1201862, “PubChem BioAssay data set” (2004)
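Assay format: 96-well plates, 48-hour exposure. The concentration for 50% growth inhibition is given as GI50.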 Active and inactive are the calls of the source. No stated cut-off is given here; in the data, active = GI50 up to about 1.1 µM and inactive = higher.

Tests used:
Experiment in all cases: NCI anticancer screen, dose series, 48 h
[1] = test system: ACHN
[2] = test system: CCRF-CEM
[3] = test system: DU-145
[4] = test system: HOP-92
[5] = test system: HT-29
[6] = test system: Hs-578T
[7] = test system: KM12
[8] = test system: MCF7
[9] = test system: MDA-MB-231
[10] = test system: Malme-3M
[11] = test system: NCI-H460
[12] = test system: NCI-H522
[13] = test system: OVCAR-3
[14] = test system: OVCAR-4
[15] = test system: SF-268
[16] = test system: SF-539
[17] = test system: SK-MEL-28
[18] = test system: U-251
[19] = test system: SK-MEL-5
[20] = test system: SR

Measured: GI50

COc1ccccc1OCC(=N/NC(=O)c1ccncc1)/N=C/c1cccnc1
inactive: [1] > 100 µM | [2] > 100 µM | [3] > 100 µM | [4] > 100 µM | [5] > 100 µM | [6] > 100 µM | [7] > 100 µM | [8] > 100 µM | [9] > 100 µM | [10] > 100 µM | [11] > 100 µM | [12] > 100 µM | [13] > 100 µM | [14] > 100 µM | [15] > 100 µM | [16] > 100 µM | [17] > 100 µM | [18] > 100 µM

CC(C(=O)c1ccncc1)c1ccccn1 (centres undefined)
inactive: [1] > 100 µM | [2] > 100 µM | [3] > 100 µM | [4] > 100 µM | [5] > 100 µM | [6] > 100 µM | [7] > 100 µM | [8] > 100 µM | [9] > 100 µM | [10] > 100 µM | [11] > 100 µM | [12] > 100 µM | [13] > 100 µM | [14] > 100 µM | [15] > 100 µM | [17] > 100 µM | [19] > 100 µM | [18] > 100 µM

NCCC(=O)N[C@H](Cc1cc(O)c(O)c(SCC(NC(=O)CC[C@H](N)C(=O)O)C(=O)NCC(=O)O)c1)C(=O)O (some centres undefined)
inactive: [1] > 50 µM | [3] > 50 µM | [4] > 50 µM | [5] > 50 µM | [7] > 50 µM | [8] > 50 µM | [9] > 50 µM | [10] > 50 µM | [11] > 50 µM | [12] > 50 µM | [14] > 50 µM | [15] > 50 µM | [17] > 50 µM | [19] > 50 µM | [18] > 50 µM

O=C1NC(=N/c2ccccc2)/C(=N\c2ccccc2)N1c1ccccc1
inactive: [1] 16.9 µM | [2] 30.3 µM | [3] 12.4 µM | [4] 16.3 µM | [5] 16 µM | [6] 16.6 µM | [7] 15.6 µM | [9] 20.8 µM | [10] 17.4 µM | [11] 16.5 µM | [12] 1.7 µM | [14] 18.4 µM | [15] 17.9 µM | [16] 17.4 µM | [17] 14.8 µM | [19] 15.9 µM | [20] 20 µM | [18] 15.6 µM

COc1cc(/C=C2\[C@@H]3NC(Cc4c(OC)c(C)c(OC)c(OC)c43)C(=O)N2Cc2ccccc2)c(OC)c(C)c1OC
inactive: [1] 44 µM | [2] 30.8 µM | [4] 20 µM | [5] 24.9 µM | [7] 56.1 µM | [10] 28.2 µM | [11] 21.6 µM | [12] 18.4 µM | [13] 31.7 µM | [14] 32.3 µM | [15] 59.3 µM | [16] 66.4 µM | [17] 60.7 µM | [19] 34.1 µM | [20] 25 µM | [18] 35.2 µM

NNC(=O)Cn1c2ccc(Br)cc2c2nc3ccccc3nc21
inactive: [1] 36.6 µM | [3] > 100 µM | [5] > 100 µM | [7] > 100 µM | [8] 69.3 µM | [9] > 100 µM | [13] 23.2 µM | [15] > 100 µM | [16] > 100 µM | [17] 47.8 µM | [19] > 100 µM | [20] > 100 µM | [18] 43.7 µM

Cc1ccc2c(=O)c(C(=O)NNC(=S)NC3CCCCC3)c[nH]c2n1
inactive: [1] 96.4 µM | [2] 99.5 µM | [3] > 100 µM | [5] 53.1 µM | [6] 64.1 µM | [7] 56.8 µM | [8] 83.6 µM | [9] 52.7 µM | [10] 65.8 µM | [11] 80 µM | [12] 51.6 µM | [13] 71.8 µM | [14] 78.9 µM | [15] 96.8 µM | [17] 77.8 µM | [19] 33.7 µM | [18] 65.9 µM

O=C1CC(=O)c2c(N3CCCC3)sc(N3CCCC3)c21
inactive: [1] > 100 µM | [2] 41.2 µM | [3] > 100 µM | [4] > 100 µM | [5] > 100 µM | [6] > 100 µM | [7] > 100 µM | [8] > 100 µM | [10] > 100 µM | [11] > 100 µM | [12] 57.4 µM | [13] > 100 µM | [14] > 100 µM | [15] > 100 µM | [16] > 100 µM | [17] > 100 µM | [19] > 100 µM | [20] > 100 µM | [18] > 100 µM
